From PubChem BioAssay AID2305 (GlaxoSmithKline (GSK), 2010)
Values joined by “and” are separate entries in the source; they are usually repeats but may differ in a detail not shown here. Identical values can stand only once.

tested on: P. falciparum 3D7 growth, pLDH absorbance; assay: P. falciparum 3D7 growth inhibition, dose response, strain 3D7 (AID 2305)

Row | Compound | IC50
1 | COc1ccc(NC(=O)c2ccc(Br)c(C)c2)cc1N1CCN(Cc2ccccc2)CC1 | 920 nM
2 | C=CCOC(=O)N1CCC(CNCc2cccc(-c3cccc(-c4nc5ccc(F)cc5[nH]4)c3)c2)C1 (centres undefined) | 210 nM
3 | Cc1ccc(NC(=O)c2cccc(N3CCN(c4ccncc4)CC3)c2)cc1F | 1300 nM
4 | CC(C)Cn1ncc2c3c(N)nc(N)nc3ccc21 | 160 nM
5 | Cc1cc(C)cc(OCC(O)CN(Cc2cc(Cl)cc(Cl)c2)C(=O)Nc2ccc(Cl)cc2)c1 (centres undefined) | 810 nM
6 | NC(=O)COc1cccc2c1CCN(CCN1CCC(NC(=O)c3ccc(-c4ccc(Cl)cc4)cc3)CC1)C2 | 840 nM
7 | COc1cccc(-c2nn(C)c3sc(C(=O)Nc4cccnc4)cc23)c1 | 950 nM
8 | Nc1ccc2[nH]cc(C3CCN(CC4CCC(NC(=O)/C=C/c5ccc(Cl)c(Cl)c5)CC4)CC3)c2n1 (centres undefined) | 730 nM
9 | O=C(NC1CCCC1)c1ccc(N2CCC(NCc3cccc(C(F)(F)F)c3)CC2)cc1 | 1330 nM
10 | COc1cc2cc(Cc3cnc(N)nc3N)ccc2c(OC)c1OC | 240 nM
11 | O=C(N[C@H]1CCN(CCc2ccc(O[C@H]3CCNC3)c(Cl)c2)C1)c1ccc(Cl)c(Cl)c1 | 890 nM
12 | COc1ccc(CNC2Cc3ccccc3C2)cc1-c1ccc(S(=O)(=O)NCc2cccnc2)s1 | 1110 nM
13 | COc1cc2nc(N3CCC(CNC(=O)c4ccc(-c5cccc(C#N)c5)cc4)CC3)nc(N)c2cc1OC | 140 nM
14 | CCCc1ccc(C2CCN(CCCCNC(=O)c3ccc(NC(=O)c4ccc(Cl)cc4)cc3)CC2)cc1 | 630 nM
15 | NS(=O)(=O)c1cccc(Br)c1 | 890 nM
16 | Cc1cc(N2CCCC2)nc(Nc2ccc(NC(=O)C(C)(C)C)cc2)n1 | 1070 nM
17 | O=C(Cc1ccc(NC(=O)c2ccc(O)c(-c3cccc([N+](=O)[O-])c3)c2)cc1)NCCN1CCCCC1 | 900 nM
18 | COc1cccc(OC)c1CN1CCC(N(C)CCCCCCCCCN2CCC(OC(=O)Nc3ccccc3-c3ccccc3)CC2)CC1 | 320 nM
19 | CCNc1cc(C(=O)N[C@@H](Cc2ccccc2)[C@H](O)CNCCc2ccccc2)cc(N2CCCCS2(=O)=O)c1 | 940 nM
20 | CN(C)CCC1CCN(CCS(=O)(=O)c2cccc(Nc3ccc(-c4ccsc4)cn3)c2)CC1 | 940 nM
21 | Cc1ccc(C)c2sc(N3CCN(C(=O)c4ccc([N+](=O)[O-])o4)CC3)nc12 | 820 nM
22 | CCCNCc1ccc(-c2ccc(CN(CCOC)C(=O)CC3CCCC3=O)cc2)nc1 (centres undefined) | 1240 nM
23 | COc1ccc(NC(=O)Nc2ccc(-c3cccc(-c4nc5ccccc5[nH]4)c3)cc2)cc1 | 760 nM
24 | COc1ccc(S(=O)(=O)NCCCC2CCN(CCCCCNC(=O)C=Cc3ccc(Cl)c(Cl)c3)CC2)cc1 | 1040 nM

Row | Compound | IC50
25 | CCC[C@@H]([C@@H](CC1CCCCC1)C(=O)N[C@H](C(=O)Nc1nccs1)C(C)(C)SCCNC(=O)OCc1ccccn1)N(O)C=O | 160 nM
26 | CCNCc1cccc(-c2ccc3ccnc(N)c3c2)c1 | 50 nM
27 | FC(F)(F)c1ccc2nc(-c3cccc(-c4ccc(CNCc5ccccc5)cc4)c3)[nH]c2c1 | 160 nM
28 | COc1ccc(F)cc1-c1ccccc1CNC(=O)CN(C)S(=O)(=O)c1cc(C)cc(Cl)c1C | 660 nM
29 | CC[C@H]1CN2CC[C@H]1C[C@H]2[C@H](O)c1cc(/C=C/c2ccccc2)nc2ccc(OC)cc12 | 40 nM
30 | O=C(/C=C/c1ccc(Cl)c(Cl)c1)NCCCCCN1CCC(CCNC(=O)/C=C/c2cc(C(F)(F)F)ccc2F)CC1 | 770 nM
31 | COc1cc(C(=O)NC2CCN(Cc3ccccc3)CC2)ccc1-c1nc2cc(Cl)c(Cl)cc2[nH]1 | 520 nM
32 | COc1ccccc1C1CC(c2ccc(Br)cc2)=NN1C(=O)c1ccccc1 (centres undefined) | 1110 nM
33 | N#Cc1c(-c2ccccc2)cn2c1[nH]c(=O)c1ccccc12 | 110 nM
34 | Cc1cccc2[nH]c(-c3cccc(-c4cccc(NC(=O)CNC(=O)c5ccc(O)cc5)c4)c3)nc12 | 990 nM
35 | Cc1cc(NCC2CCN(CC3CCCCC3)C2)nc(Nc2ccc(Br)cc2)n1 (centres undefined) | 880 nM
36 | O=C(NCc1ccc(C(=O)NCc2cccc3ccccc23)cc1)c1ccc(O)c(-c2ccc(Cl)c(Cl)c2)c1 | 810 nM
37 | CN1CC[C@@H](Oc2cc(NC(=O)Nc3ccc(Cl)c(C(F)(F)F)c3)ccc2Cl)C1 | 990 nM
38 | Cc1[nH]c(C)c(-c2ccc(Oc3cccc(OC(F)(F)F)c3)cc2)c(=O)c1Cl | 680 nM
39 | CC(=O)N1N=C(c2ccc(F)cc2)Sc2c1nc(C1CCCCC1)n2C(C)=O | 890 nM
40 | CO[C@@H]1C[C@@H](C(=O)Nc2ccccc2)N(c2ccc(C#N)c3ccccc23)C1 | 910 nM
41 | OC(CNCc1ccccc1OCc1ccccc1)c1cc(Br)cs1 (centres undefined) | 720 nM
42 | COc1cccc2cc(C(=O)N[C@@H](CC(C)C)C(=O)N[C@H](/C=N/N3CCCC3=O)Cc3ccccc3)oc12 | 560 nM
43 | CC(=O)c1ccc(NC(=O)Nc2ccc3nccc(N4CCN(C)CC4)c3c2)cc1 | 430 nM
44 | N#Cc1ccc2c(c1)CN(CCCCNC(=O)c1ccc(-c3ccccc3)cc1)CC2 | 890 nM
45 | Nc1nc(N)c2c(n1)CCc1cc(Br)ccc1-2 | 1130 nM
46 | COc1ccc(-n2c(=O)c3c(n4c(SC(C)C)nnc24)-c2ccccc2CC32CCCCC2)cc1 | 500 nM
47 | Cc1cc(N[C@@H](CC(C)C)C(=O)NCCc2ccccc2)nc(NCCc2ccc(F)cc2)n1 | 770 nM
48 | CC(=O)Nc1csc(-c2cnc(/C=C(\C)C[C@@H]3OC[C@H](C[C@@H]4O[C@H]4[C@@H](C)[C@H](C)O)[C@@H](O)[C@H]3O)o2)c1 | 180 nM

Row | Compound | IC50
49 | COc1ccc(O)cc1Cc1cnc2nc(N)nc(N)c2c1C | 10 nM
50 | CCOC(=O)c1ccc2nc(-c3ccc(C(=O)NC4CCN(Cc5ccccc5)CC4)s3)[nH]c2c1 | 740 nM
51 | Cc1cc(F)ccc1Nc1nc(N(C)c2ccccc2)c2cccc(O)c2n1 | 960 nM
52 | NS(=O)(=O)c1cccc(Nc2nccc(-c3c(-c4cccc(NC(=O)c5c(F)cccc5F)c4)nn4ccccc34)n2)c1 | 70 nM
53 | Cc1cc(NC(=O)c2ccco2)ccc1OC1CCN(Cc2ccc(F)cc2)CC1 | 590 nM
54 | Cc1ccccc1OCC(O)CN1CCC(C2CCN(CC(O)COc3ccccc3C)CC2)CC1 (centres undefined) | 310 nM
55 | CC(C)CNCc1ccc(-c2ccccc2CN(C(=O)NCCc2ccccc2)C2CCN(Cc3ccccc3)CC2)cc1 | 880 nM
56 | Cc1cccc(NC(=O)c2ccc(C(=O)NC3CCN(CC4CCCCC4)CC3)cc2)c1 | 810 nM
57 | CC(CCc1ccccc1)NCC(O)c1cccc(C(F)(F)F)c1 (centres undefined) | 710 nM
58 | CCC[C@@H]([C@@H](CC1CCC(C)CC1)C(=O)N[C@@H](CCCCNC(=O)c1ccccn1)C(=O)Nc1nccs1)N(O)C=O (some centres undefined) | 50 nM
59 | CN1CCN(Cc2cccc(Nc3nccc(Nc4ccc(Oc5ccccc5)cc4)n3)c2)CC1 | 300 nM
60 | COc1ccc2nccc([C@@H](O)CN3CCC(NCCOc4c(C)cccc4F)CC3)c2c1 | 350 nM
61 | COC(=O)c1cccc(C#CCCOCCCCCCNC[C@H](O)c2cc(Cl)c(N)c(Cl)c2)c1 | 770 nM
62 | CC(CN1CCN(CC(c2ccc(F)cc2)N2CCN(C)CC2)CC1)C(=O)c1ccc(O)cc1 (centres undefined) | 670 nM
63 | CN1CCC(Oc2ccc(CN3CC[C@H](NC(=O)c4cccc(C#N)c4)C3)c3ccccc23)C1 (some centres undefined) | 800 nM
64 | CN1CCCC(CN2CCN(Cc3ccc(-c4ccc(-c5nc6ccc(F)cc6[nH]5)s4)cc3)CC2)C1 (centres undefined) | 130 nM
65 | N=C(N)c1ccc(-c2cc(-c3cccc(C(=N)N)c3)on2)cc1 | 10 nM
66 | Cc1ccc(Oc2ccc(CNc3nc(Nc4cccc(F)c4)nc(Nc4cccc(F)c4)n3)cc2)cc1 | 1210 nM
67 | O=C(Nc1cccc(-c2cccc(F)c2)c1)C1CCN(Cc2ccc(O)cc2)CC1 | 1730 nM
68 | COc1ccc2ncc(Cl)c(NCC3(O)CCC(NCc4ccc5c(n4)NC(=O)CS5)CC3)c2n1 (centres undefined) | 600 nM
69 | N#Cc1cccc(NC(=O)NC2CCN(CCCCCNC(=O)[C@@H]3C[C@H]3c3ccc(Cl)c(Cl)c3)CC2)c1 | 790 nM
70 | Cc1[nH]c(C)c(-c2ccc(-c3ccccc3Cl)nc2)c(=O)c1Cl | 220 nM
71 | O=C(NCc1cccc(F)c1)Nc1ccc(-c2cccc(-c3nc4ccc(F)cc4[nH]3)c2)cc1 | 770 nM
72 | CCCc1cc(Cc2cnc(N)nc2N)ccc1OCCCCCC(=O)O | 580 nM

Row | Compound | IC50
73 | COc1ccc(C(=O)Nc2ccc3nc(N4CCCCC4)cc(C)c3c2)cc1[N+](=O)[O-] | 780 nM
74 | COc1ccc(OCC(=O)Nc2nc(-c3ccc(OC)cc3)c(C)s2)cc1 | 1950 nM
75 | Cc1ccc2c(NN=Cc3ccc(Cl)cc3)cc(C)nc2c1 | 950 nM
76 | O=C(NC1CC1)c1ccc(N2CCC(Cc3ccccc3)CC2)c([N+](=O)[O-])c1 | 610 nM
77 | COc1c(C2CCN(CCCCNC(=O)c3cc(-c4ccc(C#N)cc4)n[nH]3)CC2)ccc2c1CCCC2 | 1160 nM
78 | O=C(CSc1nccn1C1CCCC1)Nc1cc(C(F)(F)F)ccc1Cl | 380 nM
79 | CC(=O)Nc1ccc2[nH]cc(C3CCN(CC4CCC(NC(=O)/C=C/c5ccc(Cl)c(Cl)c5)CC4)CC3)c2c1 (centres undefined) | 440 nM and 720 nM
80 | CCN(CC)CC(O)CNc1c2ccc([N+](=O)[O-])cc2nc2cc(OC)c(OC)cc12 (centres undefined) | 270 nM
81 | Cc1[nH]c2ccc(NS(C)(=O)=O)cc2c1C1CCN(CC2CCN(C(=O)/C=C/c3ccc(Cl)c(Cl)c3)CC2)CC1 | 680 nM
82 | CCOc1cc(C(C)C)ccc1C1CCN(CCCCNC(=O)c2ccc(NC(=O)c3ccc(Cl)cc3)cc2)CC1 | 810 nM
83 | CCOc1cc(C(=O)N[C@@H](Cc2ccccc2)[C@H](O)CNCc2cc(OC)cc(OC)c2)cc(N2CCCCS2(=O)=O)c1 | 520 nM
84 | CCCCN1CCN(c2cc(NS(=O)(=O)c3cccc(C(=O)Nc4ccc(C(F)(F)F)cc4)c3)ccc2OC)CC1 | 690 nM
85 | Cc1cccc(Cl)c1Nc1nnc(-c2cccc(C(=O)NC[C@@H]3CC[C@H]4C[C@@H]3C4(C)C)c2)o1 | 270 nM
86 | c1ccc2[nH]c(-c3ccc(-c4ccc(CN5CCN(CCN6CCOCC6)CC5)cc4)s3)nc2c1 | 280 nM
87 | Cc1ccc(Sc2ccc(NC(=O)CN3CCN(C(=O)c4ccco4)CC3)cc2)cc1C | 910 nM
88 | O=C(Nc1ccc(-c2oc(C(=O)NCCc3cccc(Cl)c3)cc2-c2ccncc2)cc1)Nc1cccc(Cl)c1 | 720 nM
89 | Oc1ccc2nc(NCCCc3ccccc3)nc(NCCCc3ccccc3)c2c1 | 400 nM
90 | O=C(Cc1cnc[nH]1)Nc1ccc(-c2ccc(-c3nc4ccc(C(F)(F)F)cc4[nH]3)s2)cc1 | 660 nM
91 | O=S(=O)(NC1CCN(c2ccnc3cc(Cl)ccc23)C1)c1cccc(F)c1 (centres undefined) | 490 nM
92 | COc1cc(NC(=O)c2cc3c(C)nn(-c4cccc(C(F)(F)F)c4)c3s2)cc(OC)c1OC | 800 nM
93 | COc1cc(-c2nc(-c3ccc4c(c3)CCC4=NO)c(-c3ccncc3)[nH]2)ccc1OCCN1CCN(C)CC1 | 760 nM
94 | Cc1ccc(N/C(N)=N/c2ncccc2OCc2c(F)cccc2Cl)cc1 | 1190 nM
